# According to US11884710B2, “Peptide compounds and methods of use in wound healing” (priority 2013, dated 2024):
# Square brackets hold non-standard residues; d marks the D form. Peptide text beside a SMILES is read from it. PEG2 = NCCOCCOCCC(=O)O
# Key:
# [1] = system: P. aeruginosa (ATCC 27853); assay: Mouse model of Pseudomonas (bacterial) keratitis; type: in vivo; conditions: C57/BL6 mice; topical peptide 0.25 to 0.75 mg/ml; 48 hours post-infection
# Experimental: A circular wound was created on the mouse cornea by removing the epithelium and infected with 10^5 colony forming units (CFU) of P. aeruginosa (ATCC® 27853™ (American Type Culture Collection, Manassas, Va.)). Infected wounds were treated with saline (0.9% sodium chloride, vehicle control) or saline containing indicated concentrations of peptide every 15 minutes for 2 hours, then every 30 minutes for 3 hours on the first day. Infected wounds were treated twice on the second day and once on the third day. Mice were killed at 48 hours post-infection, and CFU/eye were quantified. The means were plotted and are representative of 5 to 9 mice per group. Mann Whitney test was performed for each group as compared to the saline control group. *P=0.014. In compound names such as BCC02-5RMP used herein, “R” represents arginine, and “MP” represents a small PEG molecule as defined elsewhere herein (such as, for example but not by way of limitation, “AEEP”).
# (§1) A circular wound was created on the mouse cornea by removing the epithelium, and the wound was infected with 10^5 CFU of P. aeruginosa (ATCC® 27853™ (American Type Culture Collection, Manassas, Va.)). Infected wounds were treated with saline or saline containing indicated concentrations (2, 5, 10, and 20 mg/ml) of peptide every 30 minutes for 6 hours on the first day. Infected wounds were treated twice on the second day and once on the third day. Mice were killed at 48 hours post-infection, and the CFU/eye were quantified. The means are plotted and are representative of 5 mice per group. Mann Whitney test was performed for each group as compared to the saline control group. *P=0.015 and **P=0.097.
# as §1, with “representative of 4 to 5 mice” for “representative of 5 mice”, “control group.” for “control group. *P=0.015 and **P=0.097.”
# as §1, with “group. **P=0.0079 by” for “group.”, “test” for “test was performed for each group”, “group.” for “group. *P=0.015 and **P=0.097.”
# A circular wound (2 mm) was created on the mouse cornea by removing the epithelium and infecting the wound with 10^5 CFU of P. aeruginosa (ATCC® 27853™ (American Type Culture Collection, Manassas, Va.)). Infected wounds were treated with saline or saline containing indicated concentrations of peptide every 15 minutes for 2 hours, then every 30 minutes for 3 hours on the first day. […] Mice were killed at 48 hours post-infection, and the colony forming units per eye (CFU/eye) were quantified. […]
# [2] = system: release of TNF-α from LPS-stimulated RAW264.7 cells; assay: LPS neutralization: TNF-α release from LPS-stimulated RAW264.7 cells; type: cell-based, mouse
# Experimental: (§2) The well-characterized response of RAW264.7 macrophage cells was used to produce tumor necrosis-factor-alpha (TNF-α) in response to LPS to determine whether the peptides could dampen the release of this cytokine. […] Importantly, pre-treatment (3 hours prior to LPS addition) as well as post-treatment of the RAW264.7 cells (3 hours post LPS addition) with peptide dampened the cytokine release. […] The finding that the novel peptides bind and neutralize the effect of Pseudomonas LPS is of critical importance since this ensures that the novel therapeutic peptide compounds described herein will not only kill the bacteria, but will also neutralize the LPS endotoxin released by the bacteria which plays such an important role in the rapid progression of sepsis.
# (§3) BCC01-5RMP (SEQ ID NO:23), BCC002-5RMP (SEQ ID NO:21), and BCC003-5RMP (SEQ ID NO:22) were tested for their ability to bind lipopolysaccharide (LPS) using the limulus amebocyte lysate method (LAL). […] There was no statistical difference in their ability to bind LPS using the LAL technique. The ability of the peptides to neutralize LPS was assessed by determining their ability to attenuate the release of tumor necrosis factor-alpha (TNF-α) from LPS-stimulated RAW264.7 cells (a mouse macrophage cell line). […] No significant differences were observed between the three peptides to neutralize LPS as measured by cytokine release. Peptides based on sequence 120-146 (SEQ ID NOS:28-31) also bind and neutralize Pseudomonas LPS.
# Escherichia coli = assay: In vitro bactericidal activity against Escherichia coli; type: cell-based; conditions: E. coli; inoculum 1×10^6 CFU/ml; 60 to 180 minute incubation
# Experimental: (§4) In vitro bactericidal activity: The three peptide compounds BCC01-5RMP (SEQ ID NO:23), BCC002-5RMP (SEQ ID NO:21), and BCC003-5RMP (SEQ ID NO:22) were assayed for in vitro bactericidal activity against Pseudomonas aeruginosa, Escherichia coli, Salmonella typhimurium, and Acinetobacter baumannii. The starting inoculum for all experiments was 1×10^6 colony forming units (CFU)/ml. The CFU remaining at the end of 60 to 180 minute incubation was determined, and the data plotted as a log reduction in CFU/ml.
# [3] = system: Pseudomonas clinical isolate B64; assay: BIOSCREEN C growth assay, peptide plus antibiotic combinations; type: cell-based, Pseudomonas aeruginosa
# Experimental: FIGS. 28A and 28B show the effect of BCC002-5R-MP (SEQ ID NO:21) in combination with Cefotaxime on MIC using Pseudomonas clinical isolate B64. Cefotaxime (Cefo) and peptide combinations included a constant amount of Cefotaxime (2.81 μg/ml) with suboptimal amounts of peptide (0, 0.34, 1.01, and 3.04 μg/ml). […] FIG. 28B is a histogram showing Fractional area (FA), which is an indication of the MIC.
# FIG. 29B is a histogram showing Fractional area (FA), which is an indication of the MIC.
# FIGS. 30A and 30B show the effect of BCC02-5R-MP (SEQ ID NO:21) in combination with Levofloxacin (Levo) and peptide combinations included a constant amount of Levofloxacin (3.6 μg/ml) with suboptimal amounts of peptide (0, 0.34, 1.01, 3.04 μg/ml). […] FIG. 30B is a histogram showing Fractional area (FA), which is an indication of the MIC.
# The peptide and antibiotics were set up in the wells of the microtiter plate at starting ratios of MIC equivalents of antibiotic:peptide at 3:1, 1:1, and 1:3. They were serially diluted to concentrations well below suboptimal/sublethal levels of the antibiotic and peptide. The organism was added (1×10^5 CFU/well), the BIOSCREEN C™ assay (Growth Systems USA, Piscataway, N.J.) was performed, and data was collected over 24 hours.
# Pseudomonas LPS = assay: LPS binding, Limulus Amebocyte Lysate (LAL) assay; conditions: LAL method
# Experimental: as §2, §3
# Salmonella typhimurium = assay: In vitro bactericidal activity against Salmonella typhimurium; type: cell-based; conditions: inoculum 1×10^6 CFU/ml, 60 to 180 minute incubation
# Experimental: as §4
# Acinetobacter baumannii = assay: In vitro bactericidal activity against Acinetobacter baumannii; type: cell-based; conditions: inoculum 1×10^6 CFU/ml, 60 to 180 minute incubation
# Experimental: as §4
# P. aeruginosa ATCC 27853 = type: cell-based, Pseudomonas aeruginosa; conditions: Pseudomonas; inoculum 1×10^6 CFU/ml; 60 to 180 minute incubation
# Experimental: as §4
# Table 4 further compares the activity of several other compounds, including the “5R” versions of BCC01, i.e., SEQ ID NO:20 (which comprises SEQ ID NO: 7 with five additional arginines), the “5R” version of BCC002 (i.e., SEQ ID NO:18, which comprises SEQ ID NO: 1 with five additional arginines), and the 5RMP versions of BCC01 (SEQ ID NO: 23) and BCC002 (SEQ ID NO: 21). The data generally indicate the superiority of BCC003-5RMP (SEQ ID NO:22) and BCC002-5RMP (SEQ ID NO: 21) and the superiority of the 5R or 5RMP versions of the peptide over the “AEEP only” peptide against P. aeruginosa.
# PKCδ = assay: Immunofluorescence for PKCδ in HCEC monolayers; type: cell-based, human; conditions: PMA 1 μM; 15 minutes; scratched monolayers
# Experimental: HCEC monolayers were grown to confluency and were scratched with a 10 μl pipette tip or left unscratched, and then the monolayers were treated for 15 minutes with (A-B) buffer, (C-D) PMA (1 μM), (E-F) 250 ng/ml CAP37, and (G-J) 500 ng/ml CAP37. Cells were stained for PKCδ (250 ng/ml; (A-H)), and PKCα (1 μg/ml; (I-J)) and detected using immunofluorescence (4 μg/ml, ALEXA FLUOR® 488 dye (Life Technologies Corp., Grand Island, N.Y.)). […] Scratched monolayers that were treated for 18 hours with CAP37 (250 ng/ml; (L)) or left untreated (K) were stained for PKCδ. […] Scale bars, 20 μm.
# Immunofluorescence: HCECs and primary HCECs were cultured on Lab-Tek® II glass chamber slides (Nunc, Rochester, N.Y.) and starved overnight in basal media. For wounding studies, monolayers were scratched with a 10 μl pipette tip or left unscratched and treated with 1 μM phorbol 12-myristate 13-acetate (PMA, Sigma-Aldrich), rCAP37 (25-500 ng/ml), or basal KSFM (Gibco) for 15 minutes. After treatment, the cells were fixed in 4% (v/v) formaldehyde solution (Thermo, Rockford, Ill.) in PBS (Gibco) for 20 minutes at room temperature followed by permeabilization in 0.5% TRITON™-X 100 (Mallinckrodt, St. Louis, Mo.) in PBS for 10 minutes. Remaining formaldehyde was quenched with 0.05 M ammonium chloride (NH4Cl, Sigma-Aldrich, St. Louis, Mo.) in PBS for 10 minutes. […]
SMILES,"CFU/eye, in words [1]",neutralization of LPS: attenuation of TNF-α release [2],"in vitro bactericidal activity, in words (Escherichia coli)","sensitivity of the bacterium to Cefotaxime with peptide, in words ([3]; 3.04 μg/ml of peptide with Cefotaxime 2.81 μg/ml)","effect of peptide on the killing effect of Cefotaxime, in words ([3]; 0.34 and 1.0 μg/ml of peptide with Cefotaxime 2.81 μg/ml)",binding of Pseudomonas LPS (Pseudomonas LPS),"in vitro bactericidal activity, in words (Salmonella typhimurium)","in vitro bactericidal activity, in words (Acinetobacter baumannii)","in vitro bactericidal activity, in words (P. aeruginosa ATCC 27853)","PKCδ staining, in words (PKCδ)"
CC[C@H](C)[C@H](NC(=O)[C@H](CC(C)C)NC(=O)[C@H](C)NC(=O)CNC(=O)CNC(=O)[C@H](CO)NC(=O)[C@H](Cc1ccccc1)NC(=O)[C@H](Cc1c[nH]cn1)NC(=O)[C@H](CCCNC(=N)N)NC(=O)CNC(=O)[C@H](CCC(N)=O)NC(=O)[C@H](CC(N)=O)NC(=O)[C@H](CCCNC(=N)N)NC(=O)[C@H](CCCNC(=N)N)NC(=O)[C@H](CCCNC(=N)N)NC(=O)[C@H](CCCNC(=N)N)NC(=O)CCOCCOCCNC(=O)CCOCCOCCN)C(=O)N[C@@H](Cc1c[nH]cn1)C(=O)N[C@@H](C)C(=O)N[C@@H](CCCNC(=N)N)C(=O)N[C@@H](Cc1ccccc1)C(=O)N[C@H](C(=O)N[C@@H](CCSC)C(=O)N[C@H](C(=O)N[C@@H](C)C(=O)N[C@@H](C)C(=O)N[C@@H](CO)C(=O)N[C@@H](CS)C(=O)N[C@@H](Cc1ccccc1)C(=O)N[C@@H](CCC(N)=O)C(=O)N[C@@H](CCCNC(=N)N)C(=O)O)[C@@H](C)O)C(C)C [BCC02-5RMP] (H-[PEG2][PEG2]RRRRNQGRHFSGGALIHARFVMTAASCFQR-OH; C-terminus assumed),effectively killed all bacteria and cured the infection,attenuate the release of TNF-α,"strong, but lesser activity",now sensitive,no statistical effect,bound Pseudomonas LPS,"strong, but lesser activity",most active,most active,–
"CCCCCCCCCCCCCC(=O)O[C@@H]1[C@@H](C)[C@@]2(O)[C@@H](C=C(CO)C[C@]3(O)C(=O)C(C)=C[C@@H]23)[C@@H]2C(C)(C)[C@]12OC(C)=O [PMA, phorbol 12-myristate 13-acetate, reference compound]",–,–,–,–,–,–,–,–,–,increased staining
